US11590117B2, “Treatment of a hematologic malignancy with 2-(4-chlorophenyl)-n-((2-(2,6-dioxopiperidin-3-yl)-1-oxoisoindolin-5-yl)methyl)-2,2-difluoroacetamide” (priority 2016, dated 2023)
Read-outs that look alike come from different tables or passages of the source.

How the values were obtained:
[1] = tested on: Bone marrow CD34+ cells from healthy donors (myeloid differentiation); test: Neutrophil maturation ex vivo, bone marrow CD34+ cells, flow cytometry; format: cell-based
Experimental: Compound 1 effects on the proliferation of CFU-GM progenitor cells are of special relevance because of the role of these progenitor cells in drug-induced neutropenia. Neutrophils are derived from CFU-GM progenitors occurring through distinct stages, from progenitor cells through myeloblasts (stage I), promyelocytes (stage II) and myelocytes (stage III) that finally mature towards neutrophils with banded or segmented nuclei. The effects of Compound 1 on neutrophil maturation were determined by using two-dimensional cultivation of progenitors followed by flow cytometry. Bone marrow CD34+ cells obtained from healthy volunteers were transferred to tissue culture medium and myeloid differentiation was induced ex vivo by adding stem cell factor (SCF), Fms-related tyrosine kinase 3 ligand (Flt-3 ligand), and granulocyte colony stimulating factor (G-CSF). Concentrations of Compound 1 up to 30 nM and exposure times of 8, 24, and 72 hours starting at Day 0 were selected to evaluate the effect of Compound 1 in this system. After exposure to Compound 1, cells were washed and then incubated in culture medium in the absence of Compound 1 until Day 14. Cell differentiation and apoptosis were measured in a flow cytometry-based method at Days 3, 7, 10, and 14 of culture, with apoptotic and dead cells identified as Annexin V positive and 7-aminoactinomycin D positive.
In FIG. 34, Bone marrow C34+ cells from healthy donors were incubated with 30 nM Compound 1 or DMSO. Compound 1 was washed out after 8, 24 or 72 hours, the medium was replaced, and the cultures were incubated until Day 14 in the absence of Compound 1 or DMSO. Cells were classified from most immature to most mature as HPC, Stage I, Stage II, Stage III and Stage IV according to their expression of CD34, CD33 and CD11b. Then apoptotic cells from each stage were identified as positive for Annexin V and labeled as AV+ HPC, AV+ Stage I, AV+ Stage II, AV+ Stage II and AV+ Stage IV. […] Representative results are shown for bone marrow progenitors from one of two healthy donors evaluated. […]

[2] = tested on: HL-60 human AML cells; format: in vivo, SCID mice; conditions: for reduction in percentage of human CD33+/CD45+ tumor cells in the BM: vs vehicle control
Experimental: In this study, Compound 1 antitumor activity in the HL-60 IV AML xenograft model was studies. In this model, HL-60 human AML cells engraft in host BM and internal organs (eg, spleen, liver) and animals develop progressive peripheral leukocytosis. Female severe combined immunodeficiency (SCID) mice were inoculated with HL-60 cells by tail vein injection. To understand the effect of Compound 1 on the xenografted HL-60 cells, animals were dosed intraperitoneal (IP) with vehicle or Compound 1 (0.5, 1, 2.5, and 5 mg/kg) once daily (QD)×5 between Weeks 3 and 4 post-engraftment (AP6516, survival study) or animals were dosed IP twice daily (BID) with vehicle or Compound 1 for 5 or 10 consecutive days (5 mg/kg BID×5 or 2.5 mg/kg, BID×10) between Weeks 6 and 8 post-engraftment (Study AP6982, % human CD33+[hCD33+] cells in BM).
(§1) In this study, different Compound 1 dosing schedules (5 mg/kg, BID×5 consecutive days versus 2.5 mg/kg, BID×10 consecutive days) were studied while maintaining the total amount of drug administered constant. Vehicle control animals were treated with 5% N-methyl-2-pyrrolidone (NMP)/45% PEG 400/50% saline. Treatment was initiated 6 weeks post inoculation. Vehicle and Compound 1 treatment groups were terminated either on Day 7 (following 5 consecutive days of 5 mg/kg twice a day [BID] Compound 1) or on Day 11 (following 10 consecutive days of 2.5 mg/kg BID Compound 1) post treatment initiation. The primary endpoint for the study was percentage of hCD33+/CD45+ cells in the BM by FACS analysis. Additional endpoints included cell viability, body weight, and BM histology.
HL-60 cells were identified from femur bone marrow samples by FACS analysis as CD33+/CD45+ with human specific antibodies. The percentage of human CD33+/CD45+ cells in the BM of vehicle-treated animals from the BID×5 and BID×10 groups were 47.5±6% and 55.2±6%, respectively.

[3] = tested on: HL-60 human AML cells; test: HL-60 IV AML xenograft model, bone marrow histology; format: in vivo, SCID mice
Experimental: as §1
The alternate femur of vehicle and Compound 1-treated animals was fixed in formalin, embedded in paraffin and processed for hematoxylin and eosin staining. A single tissue section/animal was used for histological analysis and the percent of tumor in viable bone marrow was estimated based on the area occupied by tumor cells. There was a significant 35% reduction (p<0.006 relative to the vehicle control) in the percentage of viable tumor in the bone marrow with Compound 1 (5 mg/kg) BID×5 treatment. […]

O=C1CCC(N2Cc3cc(CNC(=O)C(F)(F)c4ccc(Cl)cc4)ccc3C2=O)C(=O)N1 (stereo not drawn) [Compound 1, 2-(4-chlorophenyl)-N-((2-(2,6-dioxopiperidin-3-yl)-1-oxoisoindolin-5-yl)methyl)-2,2-difluoroacetamide]
viability during neutrophil maturation ([1]; 30 nM (highest concentration tested), exposure 24 hours and 72 hours): decreased | cell viability after removal of Compound 1 ([1]; 30 nM, cultures exposed for 24 hours): reaching control values at Day 10 | viability during neutrophil maturation ([1]; ≤3 nM in 24-hour and 72-hour exposure groups, or 0.03 to 30 nM with 8 hours exposure): no reduction in viability | human CD33+/CD45+ cells in the BM ([2]; 2.5 mg/kg IP BID×10): 15.7% | reduction in percentage of human CD33+/CD45+ tumor cells in the BM ([2]; 2.5 mg/kg IP BID×10, p<0.0001): 71.5% | human CD33+/CD45+ cells in the BM ([2]; 5 mg/kg IP BID×5): 21.9% | reduction in percentage of human CD33+/CD45+ tumor cells in the BM ([2]; 5 mg/kg IP BID×5, p=0.0013): 54.0% | reduction in percentage of viable tumor in the bone marrow (histology) ([3]; 2.5 mg/kg BID×10, relative to vehicle control, not statistically significant): 23.5% | reduction in percentage of viable tumor in the bone marrow (histology) ([3]; 5 mg/kg BID×5, p<0.006 relative to vehicle control): 35%
